According to publication PMC5487684, “Safety, Pharmacokinetics, and Antiviral Activity of a Novel HIV Antiviral, ABX464, in Treatment-Naive HIV-Infected Subjects in a Phase 2 Randomized, Controlled Study” (Antimicrobial Agents and Chemotherapy, 2017):

Tested on: HIV-infected subjects
Experiment: Safety and tolerability (TEAEs, ECG, laboratory) after repeated oral administration, phase 2a study
Format: in vivo, human
Settings: for Subjects experiencing at least one TEAE: Flank pain / Subjects experiencing at least one TEAE: Headache / Subjects experiencing at least one TEAE: Injury, poisoning, and procedural complications / Subjects experiencing at least one TEAE: Musculoskeletal and connective tissue disorders / Subjects experiencing at least one TEAE: Nausea / Subjects experiencing at least one TEAE: Neck pain / Subjects experiencing at least one TEAE: Nervous system disorders / Subjects experiencing at least one TEAE: Pain in extremity / Subjects experiencing at least one TEAE: Sciatica, back pain / Subjects experiencing at least one TEAE: Skin abrasion / Subjects experiencing at least one TEAE: Total / Subjects experiencing at least one TEAE: Upper abdominal pain / Subjects experiencing at least one TEAE: Vomiting / Subjects experiencing at least one TEAE: Abdominal pain / Subjects experiencing at least one TEAE: Arthralgia / Subjects experiencing at least one TEAE: Back pain / Subjects experiencing at least one TEAE: Diarrhea / Subjects experiencing at least one TEAE: Gastrointestinal disorders: fed
Procedure: Participants were assigned to one of eight groups; each group (with one exception) included eight subjects receiving either ABX464 (n = 6) or the corresponding placebo (n = 2) according to a randomization code. […] In the present study with HIV-infected subjects, the first dose administered was 25 mg, given once or 3 times a day over a 2- to 3-week period. This initial dose was therefore considered safe for assessment of the safety and tolerability of ABX464 after repeated oral administrations in subjects infected by HIV and determination of the potential effect on the HIV viral load.
The final dosing protocol for each of the eight groups was as follows: group 1, 25 mg every 3 days for 2 to 3 weeks under fasted conditions; group 2, 25 mg once a day (q.d.) for 2 to 3 weeks under fasted conditions; group 3, 50 mg once a day for 2 to 3 weeks under fasted conditions; group 4, 50 mg 3 times a day (t.i.d.) for 4 weeks under fed conditions; group 5, 75 mg once a day for 2 weeks under fed conditions; group 6, 100 mg once a day for 2 to 3 weeks under fasted conditions; group 7, 150 mg every 3 days for 2 to 3 weeks under fed conditions; and group 8, 150 mg once a day for 2 weeks under fed conditions. Per the study protocol, the treatment period was defined as 2 weeks. […] The decision to proceed to the next highest dose was determined by the data and safety monitoring board after review of the laboratory safety data, vital signs, ECGs, and adverse event reports from the group receiving the current dose after 2 weeks of treatment.
Subjects were hospitalized from the day prior to the first dose to at least the morning of day 2. They were orally dosed with 25-mg capsules of ABX464 with 240 ml water under fed or fasted conditions. According to the group, subjects were dosed with 1, 2, 3, 4, or 6 capsules to deliver 25 mg, 50 mg, 75 mg, 100 mg, or 150 mg product, respectively, or the same number of placebo capsules.
Safety assessments and laboratory tests were carried out according to the schedules described in Table S4 for groups dosed every day, every 3 days, and 3 times a day. Follow-up visits were scheduled for 7 days after the last dose and subsequently once every week in order to assess the elimination of the main ABX464 metabolite and to assess the viral load. Follow-up visits were terminated when the virus load was within 0.5 log of the baseline value or after 3 follow-up visits, whichever came first. Prior to the statistical analyses, AEs were coded using the Medical Dictionary for Regulatory Activities (MedDRA dictionary; last available version) in order to be tabulated by system organ class (SOC) and preferred term (PT). The AEs were analyzed according to the treatment emergence phase from the first study drug administration on day 1 up to 48 h after the last study drug administration. The number and percentage of subjects with at least one TEAE were tabulated by SOC and PT for each group and dose. The number of occurrences of TEAEs was also analyzed in the same way by SOC and PT for each group and dose, by grade of severity for each group and dose, and by level of causality to the study drug for each group and dose.

[1] = Group 7 (n = 6), 150 mg every 3 days, Mild
[2] = Group 7 (n = 6), 150 mg every 3 days, Moderate
[3] = Group 8 (n = 6), 150 mg q.d., Mild
[4] = Group 8 (n = 6), 150 mg q.d., Moderate

FC(F)(F)Oc1ccc(Nc2ccc3cccc(Cl)c3n2)cc1 [ABX464]
Subjects experiencing at least one TEAE: Flank pain [1]: 0 (0.0) No. (%) | Subjects experiencing at least one TEAE: Headache [1]: 4 (66.7) No. (%) | Subjects experiencing at least one TEAE: Injury, poisoning, and procedural complications [1]: 0 (0.0) No. (%) | Subjects experiencing at least one TEAE: Musculoskeletal and connective tissue disorders [1]: 1 (16.7) No. (%) | Subjects experiencing at least one TEAE: Nausea [1]: 4 (66.7) No. (%) | Subjects experiencing at least one TEAE: Neck pain [1]: 0 (0.0) No. (%) | Subjects experiencing at least one TEAE: Nervous system disorders [1]: 4 (66.7) No. (%) | Subjects experiencing at least one TEAE: Pain in extremity [1]: 0 (0.0) No. (%) | Subjects experiencing at least one TEAE: Sciatica, back pain [1]: 0 (0.0) No. (%) | Subjects experiencing at least one TEAE: Skin abrasion [1]: 0 (0.0) No. (%) | Subjects experiencing at least one TEAE: Total [1]: 5 (83.3) No. (%) | Subjects experiencing at least one TEAE: Upper abdominal pain [1]: 0 (0.0) No. (%) | Subjects experiencing at least one TEAE: Vomiting [1]: 1 (16.7) No. (%) | Subjects experiencing at least one TEAE: Abdominal pain [2]: 0 (0.0) No. (%) | Subjects experiencing at least one TEAE: Arthralgia [2]: 0 (0.0) No. (%) | Subjects experiencing at least one TEAE: Back pain [2]: 0 (0.0) No. (%) | Subjects experiencing at least one TEAE: Diarrhea [2]: 0 (0.0) No. (%) | Subjects experiencing at least one TEAE: Flank pain [2]: 0 (0.0) No. (%) | Subjects experiencing at least one TEAE: Gastrointestinal disorders [2]: 3 (50.0) No. (%) | Subjects experiencing at least one TEAE: Headache [2]: 3 (50.0) No. (%) | Subjects experiencing at least one TEAE: Injury, poisoning, and procedural complications [2]: 0 (0.0) No. (%) | Subjects experiencing at least one TEAE: Musculoskeletal and connective tissue disorders [2]: 0 (0.0) No. (%) | Subjects experiencing at least one TEAE: Nausea [2]: 3 (50.0) No. (%) | Subjects experiencing at least one TEAE: Neck pain [2]: 0 (0.0) No. (%) | Subjects experiencing at least one TEAE: Nervous system disorders [2]: 4 (66.7) No. (%) | Subjects experiencing at least one TEAE: Pain in extremity [2]: 0 (0.0) No. (%) | Subjects experiencing at least one TEAE: Sciatica, back pain [2]: 0 (0.0) No. (%) | Subjects experiencing at least one TEAE: Skin abrasion [2]: 0 (0.0) No. (%) | Subjects experiencing at least one TEAE: Total [2]: 4 (66.7) No. (%) | Subjects experiencing at least one TEAE: Upper abdominal pain [2]: 0 (0.0) No. (%) | Subjects experiencing at least one TEAE: Vomiting [2]: 3 (50.0) No. (%) | Subjects experiencing at least one TEAE: Abdominal pain [3]: 1 (16.7) No. (%) | Subjects experiencing at least one TEAE: Arthralgia [3]: 0 (0.0) No. (%) | Subjects experiencing at least one TEAE: Back pain [3]: 0 (0.0) No. (%) | Subjects experiencing at least one TEAE: Diarrhea [3]: 0 (0.0) No. (%) | Subjects experiencing at least one TEAE: Flank pain [3]: 0 (0.0) No. (%) | Subjects experiencing at least one TEAE: Gastrointestinal disorders [3]: 6 (100.0) No. (%) | Subjects experiencing at least one TEAE: Headache [3]: 6 (100.0) No. (%) | Subjects experiencing at least one TEAE: Injury, poisoning, and procedural complications [3]: 0 (0.0) No. (%) | Subjects experiencing at least one TEAE: Musculoskeletal and connective tissue disorders [3]: 1 (16.7) No. (%) | Subjects experiencing at least one TEAE: Nausea [3]: 6 (100.0) No. (%) | Subjects experiencing at least one TEAE: Neck pain [3]: 0 (0.0) No. (%) | Subjects experiencing at least one TEAE: Nervous system disorders [3]: 6 (100.0) No. (%) | Subjects experiencing at least one TEAE: Pain in extremity [3]: 1 (16.7) No. (%) | Subjects experiencing at least one TEAE: Sciatica, back pain [3]: 0 (0.0) No. (%) | Subjects experiencing at least one TEAE: Skin abrasion [3]: 0 (0.0) No. (%) | Subjects experiencing at least one TEAE: Total [3]: 6 (100.0) No. (%) | Subjects experiencing at least one TEAE: Upper abdominal pain [3]: 0 (0.0) No. (%) | Subjects experiencing at least one TEAE: Vomiting [3]: 4 (66.7) No. (%) | Subjects experiencing at least one TEAE: Abdominal pain [4]: 0 (0.0) No. (%) | Subjects experiencing at least one TEAE: Arthralgia [4]: 0 (0.0) No. (%) | Subjects experiencing at least one TEAE: Back pain [4]: 0 (0.0) No. (%) | Subjects experiencing at least one TEAE: Diarrhea [4]: 0 (0.0) No. (%) | Subjects experiencing at least one TEAE: Flank pain [4]: 0 (0.0) No. (%) | Subjects experiencing at least one TEAE: Headache [4]: 0 (0.0) No. (%) | Subjects experiencing at least one TEAE: Injury, poisoning, and procedural complications [4]: 1 (16.7) No. (%) | Subjects experiencing at least one TEAE: Musculoskeletal and connective tissue disorders [4]: 0 (0.0) No. (%) | Subjects experiencing at least one TEAE: Nausea [4]: 0 (0.0) No. (%) | Subjects experiencing at least one TEAE: Neck pain [4]: 0 (0.0) No. (%) | Subjects experiencing at least one TEAE: Nervous system disorders [4]: 0 (0.0) No. (%) | Subjects experiencing at least one TEAE: Pain in extremity [4]: 0 (0.0) No. (%) | Subjects experiencing at least one TEAE: Sciatica, back pain [4]: 0 (0.0) No. (%) | Subjects experiencing at least one TEAE: Skin abrasion [4]: 1 (16.7) No. (%) | Subjects experiencing at least one TEAE: Total [4]: 1 (16.7) No. (%) | Subjects experiencing at least one TEAE: Upper abdominal pain [4]: 0 (0.0) No. (%) | Subjects experiencing at least one TEAE: Vomiting [4]: 0 (0.0) No. (%) | Frequency of subjects receiving ABX464 who reported TEAEs (all other groups (4 to 8)): 100% | Subjects with vomiting episodes (group receiving 150 mg ABX464): 66.7% | Changes in laboratory parameters between baseline and posttreatment (in vivo): none of the changes in any laboratory parameter observed between baseline and posttreatment measurements suggested an impact | Electrocardiogram (ECG) parameters (in vivo): no clinically significant abnormalities | Product-related SAEs (in vivo): no product-related SAEs occurred | Subjects reporting upper abdominal pain (overall): 6% | Number of AEs reported (subjects who received the study drug, regardless of the dose or the drug regimen): 158 AEs | Subjects reporting upper abdominal pain (twenty cases, none in placebo): 4 subjects | Overall safety and tolerability (up to 150 mg once a day, HIV-infected subjects): safe and well tolerated
